Test system: HT-1080 (fibrosarcoma) cells
Experiment: Primary screening by ferroptosis assay (Erastin-induced, cell viability, CellTiter-Glo)
Format: cell-based
Details: HT-1080 cells, 30 hours, % remaining activity, read-out: EC50, Inhibition for Ferroptosis in HT-1080 Cell
Protocol: Cell Lines and Media: HT-1080 (fibrosarcoma) cells were obtained from American Type Culture Collection. Cells were grown in EMEM media, 10% Heat-Inactivated FBS, and penicillin-streptomycin mix (Invitrogen). Cells were maintained at 37° C. and 5% CO2 in a tissue culture incubator.
Cell Viability Assay: Seed 10,000 cell/well of HT-1080 cells with 195 μL growth media in black and clear bottom 96-well plates (Cat #Corning 3904) and allow cells to adhere overnight. The next day, dilute test compound by 2-fold dilution into 12 points with medium containing 400 μM Erastin. Transfer 5 μL of compounds solution into growth medium in triplicated wells. 30 hours later, add Cell Titer-Glo® Luminescent cell viability assay reagent (Cat #, Promega G8081) to measure HT-1080 cell viability according to the manufacture protocol. Briefly, aspirate 100 μL medium, and add 50 μL CellTiter-Glo® Luminescent reagent to each well and incubated for 30 minutes at room temperature to stabilize the Luminescent signal. Seal the plates and centrifuged for 1 minute at 1,000 rpm to remove bubbles. Shake the plates for 1 minute on an orbital shaker. Read the plate to detect Luminescent signal with EnSpire Multimode Plate Reader (PerkinElmer). The remaining activity % is used to evaluate Erastin induced ferroptosis in HT-1080 cells and expressed as the following formula: % Remaining Activity−100×[(Sample−Backgroundavg)/(Vehicle−Background avg)]
Sample: Readout from the test compound
Vehicle: Readout from the vehicle sample
Background: Readout from the Erastin only treatment
Dose response curve is graphed by using the non-linear regression analysis (formula equation 201) in XLFit (Excel add-in software) for the average % remaining activity from triplicates, and the EC50 values is then calculated. In this anti-ferroptosis assay, ferrostatin-1, and XJB-5-131 are included as reference. The acceptance criteria were set based on historical result, mean±2.58*SD in logarithmic scale, meanwhile Z′>0.5.

Point of comparison: `CC(C)C[C@@H](/C=C/[C@H](Cc1ccccc1)C(=O)N1CCC[C@H]1C(=O)N[C@@H](CCCNC(=O)OCc1ccccc1)C(=O)OC1CC(C)(C)N(O)C(C)(C)C1)NC(=O)OC(C)(C)C` [Example XXXXI, (S)-1-hydroxy-2,2,6,6-tetramethylpiperidin-4-yl 2-((S)-1-((2S,5S,E)-2-benzyl-5-((tert-butoxycarbonyl)amino)-7-methyloct-3-enoyl)pyrrolidine-2-carboxamido)-5-(((benzyloxy)carbonyl)amino)pentanoate], EC50 139 nM. Against it:
- CC(C)C[C@@H](/C=C/[C@H](Cc1ccccc1)C(=O)N1CCC[C@H]1C(=O)N[C@@H](CCCCNC(=O)OCc1ccccc1)C(=O)NC1CC(C)(C)N(O)C(C)(C)C1)NC(=O)OC(C)(C)C [Example XXVII, Benzyl N-[(5S)—5-{[(2S)-1-[(2S,3E,5S)-2-benzyl-5-{[(tertbutoxy)carbonyl]amino}-7-methyloct-3-enoyl]pyrrolidin-2-yl]formamido}-5-[(1-hydroxy-2,2,6,6-tetramethylpipe-ridin-4-yl)carbamoyl]pentyl]carbamate] — within 1.5-fold, 141 nM
- CC(C)C[C@@H](/C=C/[C@H](Cc1ccccc1)C(=O)N1CCC[C@H]1C(=O)N[C@@H](CCCNC(=O)OC1CC(C)(C)N(O)C(C)(C)C1)C(=O)OC(C)C)NC(=O)OC(C)(C)C [Example XXX, Propan-2-yl (2S)—2-{[(2S)-1-[(2S,3E,5S)-2-benzyl-5-{[(tert-butoxy)carbonyl]amino}-7-methyloct-3-enoyl]pyrrolidin-2-yl]formamido}-5-({[(1-hydroxy-2,2,6,6-tetramethylpiperidin-4-yl)oxy]carbonyl}amino)pentanoate] — 3-fold lower, 46 nM
- CC(C)C[C@@H](/C=C/[C@H](Cc1ccccc1)C(=O)N1CCC[C@H]1C(=O)N[C@@H](CCCNC(=O)OC1CC(C)(C)N(O)C(C)(C)C1)C(=O)NC(C)C)NC(=O)OC(C)(C)C [Example XXXXV] — within 1.5-fold, 144 nM
- COC(=O)[C@H](CCCNC(=O)OC1CC(C)(C)N(O)C(C)(C)C1)NC(=O)[C@@H](NC(=O)[C@@H]1CCCN1C(=O)[C@H](/C=C/[C@H](CC(C)C)NC(=O)OC(C)(C)C)Cc1ccccc1)C(C)C [XXXIX, (S)-methyl 2-((S)-2-((S)-1-((2S,5S,E)-2-benzyl-5-((tert-butoxycarbonyl)amino)-7-methyloct-3-enoyl)pyrrolidine-2-carboxamido)-3-methylbutanamido)—5-((((1-hydroxy-2,2,6,6-tetramethylpiperidin-4-yl)oxy)carbonyl)amino)pentanoate] — within 1.5-fold, 142 nM

Same assay, conditions: Homo sapiens, HT-1080, 30 h, HT-1080 cells, % remaining activity, read-out: EC50, Inhibition for Ferroptosis in HT-1080 Cell

Point of comparison: `CC(C)C[C@@H](/C=C/[C@H](Cc1ccccc1)C(=O)N1CCC[C@H]1C(=O)N[C@@H](CCCCNC(=O)C1CC(C)(C)N(O)C1(C)C)C(=O)OC(C)C)NC(=O)OC(C)(C)C` (stereo partly drawn) [Example XXXII, Propan-2-yl (2S)—2-{[(2S)-1-[(2S,3E,5S)-2-benzyl-5-{[(tert-butoxy)carbonyl]amino}-7-methyloct-3-enoyl]pyrrolidin-2-yl]formamido}-6-[(1-oxyl-2,2,5,5-tetramethylpyrrolidin-3-yl)formamido]-hexanoate], EC50 573 nM. Against it:
- CC(C)C[C@@H](/C=C/[C@H](Cc1ccccc1)C(=O)N1CCC[C@H]1C(=O)N[C@H](CCCCNC(=O)OC1CC(C)(C)N(O)C(C)(C)C1)C(=O)OC(C)C)NC(=O)OC(C)(C)C [Example XXXIII, Propan-2-yl (2R)—2-{[(2S)-1-[(2S,3E,5S)-2-benzyl-5-{[(tert-butoxy)carbonyl]amino}-7-methyloct-3-enoyl]pyrrolidin-2-yl]formamido}-6-({[(1-oxyl-2,2,6,6-tetramethylpiperidin-4-yl)oxy]carbonyl}amino)hexanoate] — 2-fold lower, 291 nM
- CCN(CC)C(=O)[C@H](CCCNC(=O)OC1CC(C)(C)N(O)C(C)(C)C1)NC(=O)[C@@H]1CCCN1C(=O)[C@H](/C=C/[C@H](CC(C)C)NC(=O)OC(C)(C)C)Cc1ccccc1 [Example XXXV, tert-Butyl N-[(4S,5E,7S)-7-benzyl-8-[(2S)—2-{[(1S)-1-(diethylcarbamoyl)-4-({[(1-oxyl-2,2,6,6-tetramethylpiperidin-4-yl)oxy]carbonyl}amino)-butyl]carbamoyl}pyrrolidin-1-yl]-2-methyl-8-oxooct-5-en-4-yl]carbamate] — 3-fold lower, 192 nM
- CC(C)C[C@@H](/C=C/[C@H](Cc1ccccc1)C(=O)N1CCC[C@H]1C(=O)N[C@@H](CCCCNC(=O)OC1CC(C)(C)N(O)C(C)(C)C1)C(=O)NC(C)(C)C)NC(=O)OC(C)(C)C [Example XXXVI, tert-Butyl N-[(4S,5E,7S)-7-benzyl-8-[(2S)—2-{[(1S)-1-(tert-butylcarbamoyl)-5-({[(1-oxyl-2,2,6,6-tetramethylpiperidin-4-yl)oxy]carbonyl}amino)pentyl]-carbamoyl}pyrrolidin-1-yl]-2-methyl-8-oxooct-5-en-4-yl]carbamate] — 4-fold lower, 142 nM
- CC(C)C[C@@H](/C=C/[C@H](Cc1ccccc1)C(=O)N1CCC[C@H]1C(=O)N[C@@H](CCCCNC(=O)OC1CC(C)(C)N(O)C(C)(C)C1)C(=O)NC(C)C)NC(=O)OC(C)(C)C [Example XXXVII, tert-Butyl N-[(4S,5E,7S)-7-benzyl-8-[(2S)—2-{[(1S)-5-({[(1-oxyl-2,2,6,6-tetramethylpiperidin-4-yl)oxy]carbonyl}amino)-1-[(propan-2-yl)carbamoyl]pentyl]carbamoyl}pyrrolidin-1-yl]-2-methyl-8-oxooct-5-en-4-yl]carbamate] — 2.9-fold lower, 201 nM
- CC(C)C[C@@H](/C=C/[C@H](Cc1ccccc1)C(=O)N1CCC[C@H]1C(=O)N[C@@H](CCCNC(=O)OCc1ccccc1)C(=O)OC1CC(C)(C)N(O)C(C)(C)C1)NC(=O)OC(C)(C)C [Example XXXX, (S)-1-Oxyl-2,2,6,6-tetramethylpiperidin-4-yl 2-((S)-1-((2S,5S,E)-2-benzyl-5-((tert-butoxycarbonyl)amino)-7-methyloct-3-enoyl)pyrrolidine-2-carboxamido)-5-(((benzyloxy)carbonyl)amino)pentanoate] — 4.1-fold lower, 140 nM
- CC(C)C[C@@H](/C=C/[C@H](Cc1ccccc1)C(=O)N1CCC[C@H]1C(=O)N[C@H](CCCCNC(=O)OC1CC(C)(C)N(O)C(C)(C)C1)C(=O)O)NC(=O)OC(C)(C)C [XXXIV, (2R)—2-{[(2S)-1-[(2S,3E,5S)-2-benzyl-5-{[(tert-butoxy)carbonyl]amino}-7-methyloct-3-enoyl]pyrrolidin-2-yl]formamido}-6-({[(1-oxyl-2,2,6,6-tetramethylpiperidin-4-yl)oxy]carbonyl}amino)hexanoic acid] — higher, > 4000 nM
- CC(C)C[C@@H](/C=C/[C@H](Cc1ccccc1)C(=O)N1CCC[C@H]1C(=O)N[C@@H](CCCNC(=O)OC1CC(C)(C)N(O)C(C)(C)C1)C(=O)NC1CC(C)(C)N(O)C(C)(C)C1)NC(=O)OC(C)(C)C [XXXXIII, 1-Hydroxy-2,2,6,6-tetramethylpiperidin-4-yl N-[(4S)—4-{[(2S)-1-[(2S,3E,5S)-2-benzyl-5-{[(tert-butoxy)carbonyl]amino}-7-methyloct-3-enoyl]pyrrolidin-2-yl]formamido}-4-[(1-hydroxy-2,2,6,6-tetramethylpiperidin-4-yl)carbamoyl]butyl]carbamate] — 4.7-fold lower, 123 nM

Same assay, conditions: Homo sapiens, HT-1080 cells, 30 hours, % remaining activity, read-out: EC50, Inhibition for Ferroptosis in HT-1080 Cell

`CC(C)C[C@@H](/C=C/[C@H](Cc1ccccc1)C(=O)N1CCC[C@H]1C(=O)N[C@H](C(=O)N[C@@H](CCCNC(=O)OC1CC(C)(C)N(O)C(C)(C)C1)C(=O)NC(C)C)C(C)C)NC(=O)OC(C)(C)C` [Example XXXXVII, tert-Butyl N-[(4S,5E,7S)-7-benzyl-8-[(2S)—2-{[(1S)—1-{[(1S)-4-({[(1-oxyl-2,2,6,6-tetramethylpiperidin-4-yl)oxy]carbonyl}amino)-1-[(propan-2-yl)carbamoyl]butyl]carbamoyl}-2-methylpropyl]carbamoyl}pyrrolidin-1-yl]-2-methyl-8-oxooct-5-en-4-yl]carbamate] gave an EC50 of 143 nM.

From patent US10889572B2, “Reactive oxygen species scavengers and use for treating diseases” (XW LABORATORIES INC., priority 2017, dated 2021)
